In patent US7282507B2, “Indole derivatives as selective androgen receptor modulators (SARMS)” (Janssen Pharmaceutica N.V., priority 2004, dated 2007):
Values joined by “and” are separate entries in the source; they are usually repeats but may differ in a detail not shown here. Equal entries are not always repeated. Where two headings read alike, the source gives them in different places.

Columns and labels:
[1] = molecular target: T1, androgen receptor (rat ventral prostate cytosol) (Rattus norvegicus, UniProt P15207); assay: Androgen Receptor Binding Using Rat Ventral Prostate Cytosol; settings: for inhibition at 1 µM / % Inhibition, Androgen Receptor Binding (Rat Cytosol): Concentration 1000 nM; for inhibition at 1 µM: read-out: % Inhibition, Androgen Receptor Binding (Rat Cytosol); for IC50: read-out: IC50 (nM), Androgen Receptor Binding (Rat Cytosol)
T1 construct: from tissue; host or cells: ventral prostate cytosol of castrated male Sprague Dawley or Wistar rats
T1 sequence (P15207 1-902): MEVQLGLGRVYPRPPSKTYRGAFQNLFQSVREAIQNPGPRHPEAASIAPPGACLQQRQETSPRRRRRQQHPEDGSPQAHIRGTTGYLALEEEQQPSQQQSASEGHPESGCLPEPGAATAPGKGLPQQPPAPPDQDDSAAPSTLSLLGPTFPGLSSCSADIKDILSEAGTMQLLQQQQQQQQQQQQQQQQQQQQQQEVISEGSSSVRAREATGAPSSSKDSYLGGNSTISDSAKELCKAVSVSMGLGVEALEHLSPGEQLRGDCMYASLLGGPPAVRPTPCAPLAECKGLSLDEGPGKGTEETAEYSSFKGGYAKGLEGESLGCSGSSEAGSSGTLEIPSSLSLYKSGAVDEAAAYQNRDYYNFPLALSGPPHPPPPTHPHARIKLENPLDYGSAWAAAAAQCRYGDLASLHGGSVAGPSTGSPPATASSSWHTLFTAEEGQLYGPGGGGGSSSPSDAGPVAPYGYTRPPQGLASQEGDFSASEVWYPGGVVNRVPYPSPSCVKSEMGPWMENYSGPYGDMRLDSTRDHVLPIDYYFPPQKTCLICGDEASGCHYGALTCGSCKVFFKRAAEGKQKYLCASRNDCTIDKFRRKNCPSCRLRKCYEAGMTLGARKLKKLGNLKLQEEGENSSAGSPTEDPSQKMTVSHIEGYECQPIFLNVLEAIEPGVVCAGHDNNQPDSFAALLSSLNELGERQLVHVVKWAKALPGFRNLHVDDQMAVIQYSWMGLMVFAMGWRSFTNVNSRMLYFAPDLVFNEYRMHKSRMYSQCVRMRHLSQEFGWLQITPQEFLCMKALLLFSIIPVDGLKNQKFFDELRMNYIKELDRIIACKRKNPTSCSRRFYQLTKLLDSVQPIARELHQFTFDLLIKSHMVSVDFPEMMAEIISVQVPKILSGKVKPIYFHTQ
How it was run: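 Cytosol from castrated rat ventral prostate was incubated overnight at 4°C with 0.5 nM [3H] tracer and compound in TED buffer (10 mM Tris-HCl pH 7.4, molybdate, EDTA, DTT, glycerol).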

[2] = molecular target: T2, androgen receptor LBD (Panvera) (Rattus norvegicus, UniProt P15207); assay: Androgen Receptor Filtration Binding Assay (PANVERA); settings: read-out: IC50 (nM), Androgen Receptor Binding (Panvera)
T2 construct: 5 pmol androgen receptor LBD (Panvera); purchased Panvera
T2 sequence (P15207 651-882 limits assumed): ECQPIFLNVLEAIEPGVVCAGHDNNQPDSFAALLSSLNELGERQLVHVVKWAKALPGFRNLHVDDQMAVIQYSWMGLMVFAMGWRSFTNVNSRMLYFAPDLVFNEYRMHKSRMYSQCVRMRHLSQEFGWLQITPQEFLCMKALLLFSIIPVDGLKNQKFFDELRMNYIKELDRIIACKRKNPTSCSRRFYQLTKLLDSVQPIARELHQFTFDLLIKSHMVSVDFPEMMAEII
Procedure: The assay was run on a 96 well plate with each well filled with a total reaction volume 150 μL, of a solution containing 5 pmol androgen receptor LBD (Panvera) or 30 μL of freshly prepared rat cytosol, 0.5 nM [^3H] […] (TED buffer contains 10 mM Tris.HCl pH 7.4, 1 mM sodium molybdate, 1.5 mM EDTA, 1 mM DTT and 10% (v/v) glycerol.)
On day one, the solution containing receptor, tracer and TED buffer was distributed into a 96 well plate. Diluted test compound or control vehicle was then added to individual wells and the plate incubated at 4° C. overnight.
On day two, to each well was then added 20 μL human γ-globulin (ICN 823102), prepared at 25 mg/ml in TE pH 8.0, and 55 μL 40% polyethylene glycol 8000 (J T Baker U222-08), prepared in TE pH 8.0. The plate was incubated at 4° C. for 60 minutes. During incubation, the harvester was rinsed with 10% PEG 8000, prepared in TE pH 8.0, and a GF/C Unifilter-96 was pre-wet with 10% PEG. The binding reaction was filtered, the retentate was washed three times with 10% PEG and dried under vacuum for a couple of minutes, then dried at 50° C. for 5 min and the plate was bottom sealed. Next, 25 μL of Microscint-20 (Packard) was added to the filter wells and the plate was top sealed. The plate wells were then counted on a TopCount (Packard).
Counts per well were measured and IC50s determined by linear regression.

| Structure (SMILES) | inhibition at 1 µM [1] | IC50 ([2]; [3H] R1881 tracer 0.5 nM) | % Inhibition, Androgen Receptor Binding (Rat Cytosol) ([1]; 1 µM) | IC50 [1] | % Inhibition, Androgen Receptor Binding (Rat Cytosol) [1] | IC50 [2] |
| --- | --- | --- | --- | --- | --- | --- |
| CC(O)(COC(=O)c1ccc(F)cc1)c1cc2cc(C#N)c(C(F)(F)F)cc2[nH]1 (stereo not drawn) [Compound 77] | -9.25% | 1110 nM |  |  |  |  |
| CC(O)(CSc1ccc(Cl)c(Cl)c1)c1cc2cc([N+](=O)[O-])c(C(F)(F)F)cc2[nH]1 (stereo not drawn) [Compound 87] |  | 350 nM and 1650 nM | 85% and 61.5% | 120 nM |  |  |
| CC(O)(CSc1ccc(Cl)cc1)c1cc2cc(Cl)ccc2[nH]1 (stereo not drawn) [Compound 102] | 73.5% | 665 nM |  | 140 nM |  |  |
| CC(O)(Sc1ccccc1)c1cc2cc([N+](=O)[O-])c(C(F)(F)F)cc2[nH]1 (racemic) [Compound 258] |  | 2450 nM |  |  | 35.4% |  |
| CC(O)(CSc1ccc(F)cc1)c1cc2ccccc2[nH]1 (stereo not drawn) [Compound 108] | 17.5% | 7000 nM |  |  |  |  |
| CC(O)(Sc1ccc(Cl)c(Cl)c1)c1cc2cc([N+](=O)[O-])c(C(F)(F)F)cc2[nH]1 (racemic) [Compound 254] |  | 1020 nM and 920 nM |  | 670 nM | 41% |  |
| CC(CO)(Sc1ccc(Cl)cc1)c1cc2cc(Cl)c(C(F)(F)F)cc2[nH]1 (racemic) [Compound 253] | 33.5% | 335 nM |  |  |  |  |
| CC(O)(CSc1ccc(Cl)c(Cl)c1)c1cc2cc([N+](=O)[O-])c(C(F)(F)F)cc2n1S(C)(=O)=O (stereo not drawn) [Compound 91] | 36% | 1280 nM |  |  |  |  |
| O=C(OCc1ccccc1)N1CCC(O)(c2cc3cc(Cl)c(C(F)(F)F)cc3[nH]2)CC1 [Compound 20] | -28.5% | 23500 nM |  |  |  |  |
| Cc1ccc(C(=O)OCC(C)(O)c2cc3cc([N+](=O)[O-])c(C(F)(F)F)cc3[nH]2)cc1 (stereo not drawn) [Compound 69] | 31% | 1200 nM |  |  |  |  |
| CC(O)(COC(=O)c1cccc(Cl)c1)c1cc2cc([N+](=O)[O-])c(C(F)(F)F)cc2[nH]1 (stereo not drawn) [Compound 58] | 79.5% |  |  |  |  | 455 nM |
| CC(O)(CSc1ccc(F)cc1)c1cc2cc(Cl)ccc2n1S(C)(=O)=O (stereo not drawn) [Compound 99] | 8.5% | 5750 nM |  |  |  |  |
